Here are results for eight molecules from patent US4180672A, “2-Organothio-2-cyclopentenones, organothio-cyclopentanes derived therefrom” (Teijin Limited, priority 1976, dated 1979).

Where two headings read alike, the source gives them in different places.

Data set [1] has as its system formation of ulcer in rats induced by indomethacin. The data set can be described thus: inhibiting action on formation of ulcer in rats induced by indomethacin (peroral). The class given is in vivo, rats (Sprague Dawley). The note with it: for Ulcer formation (ulcer coefficient) Average value ± S.E.M.: 7 rats. How it is done:
By the method of Y. H. Lee et al. [Arch. Int. Pharmacodyn. Ther., 192, 370 (1971)], the inhibiting action of dl-11-deoxy-15-methyl-7-thia-PGE1 methyl ester (a compound of formula II) on the formation of ulcer in rats induced by indomethacin, a typical non-steroid anti-inflammatory agent, was evaluated.
Male rats (Sprague Dawley species; body weight 300 g) were used in the experiment. These rats had been caused to fast for 24 hours in separate cages before the initiation of the experiment. Indomethacin was orally administered to these rats, and 6 hours later, they were killed. Formation of ulcer in the fundus part was examined by measuring the area of the ulcer-forming part under microscope. The dl-11-deoxy-15-methyl-7-thia-PGE1 methyl ester was orally administered at the end of 30 minutes and 3 hours, respectively, after the administration of indomethacin. The ulcer formation inhibiting rate of the dl-11-deoxy-15-methyl-7-thia-PGE1 methyl ester against a predetermined dose of indomethacin was determined.
The indomethacin was administered as a 0.5 ml aqueous suspension (containing two drops of a Tween-type nonionic surfactant per 14 ml of water). The dl-11-deoxy-15-methyl-7-thia-PGE1 methyl ester was given in the form of a solution in a phosphate buffer containing 0.9% of sodium chloride.
In the same way as in Referential Example 1, the compounds shown in Table 2 were examined for their inhibiting action on ulcer formation.

Data set [2] can be described thus: acute toxicity (iv) in mice. The settings on record: mouse, in vivo.

The term ED50 denotes the dose that gives a 50% effect, or the effect in half of the subjects. Broadly, the LD50 is the dose expected to kill half of the subjects tested.

As to `CCCCCC(C)(O)/C=C/C1CCC(=O)C1SCCCCCC(=O)OC` (racemic) [No. 101, dl-11-deoxy-15-methyl-7-thia-PGE1 methyl ester], in data set [1] (Rattus norvegicus, po, peroral, indomethacin 20 mg/kg peroral, rats, read-out: ED50 (inhibition of ulcer formation induced by indomethacin)), the ED50 amounted to 0.3 mg/kg. For the same molecule, the “Inhibiting rate (ulcer formation)” value worked out at 16% in data set [1] (dose 0.1 mg/kg, po); 66% in data set [1] (dose 0.4 mg/kg, po); 99% in data set [1] (dose 1.0 mg/kg, po). Besides, the “Ulcer formation (ulcer coefficient) Average value ± S.E.M.” value in data set [1] (dose 0.1 mg/kg, po, indomethacin 20 mg/kg peroral) worked out at 57.5 ± 14.1; in data set [1] (dose 0.4 mg/kg, po, indomethacin 20 mg/kg peroral, *** p 0.001), 23.3 ± 12.4; in data set [1] (dose 1.0 mg/kg, po, indomethacin 20 mg/kg peroral, *** p 0.001), 0.6 ± 0.05. For the same molecule, in data set [1] (rats, indomethacin-induced, peroral), the “inhibition of ulcer formation (in words)” value is “markedly inhibited ulcer formation”.
For `CCCCC[C@H](O)/C=C/[C@@H]1CCC(=O)[C@H]1SCCCCCC(=O)OC` [No. 89, 11-Deoxy-7-thia-8,12-diepiprostaglandin E1 methyl ester], the “Inhibiting rate (ulcer formation)” value stood at 57% in data set [1] (dose 0.4 mg/kg, po) and 65% in data set [1] (dose 1.0 mg/kg, po). In addition, the LD50 in data set [2] (iv) stood at 20 mg/kg.
Consider `CCCCCC(C)(O)CS[C@H]1C(=O)CC[C@@H]1SCCCCCC(=O)O` (some centres unmarked) [No. 154, 7,13-dithia-15-hydroxy-15-methyl-11-oxo-prostanoic acid], for which, in data set [1] (dose 2.0 mg/kg, po), the “Inhibiting rate (ulcer formation)” value worked out at 80%. For the same molecule, the LD50 in data set [2] (acute toxicity (iv) in mice, read-out: LD50) is 350 mg/kg.
`CCCCCCCS[C@H]1C(O)CC[C@@H]1SCCCCCC(=O)OC` (some centres unmarked) [No. 159, methyl 7,13-dithia-11-hydroxyprostanoate]: the “Inhibiting rate (ulcer formation)” value in data set [1] (dose 0.4 mg/kg, po) stood at 15%; in data set [1] (dose 2.0 mg/kg, po), 78%.
Take `CCCCCCCS[C@H]1CCC(O)[C@@H]1SCCCCCC(=O)OC` (some centres unmarked) [No. 171, methyl 7,13-dithia-9-hydroxyprostanoate]: the “Inhibiting rate (ulcer formation)” value in data set [1] (dose 0.4 mg/kg, po) was 12%; in data set [1] (dose 5.0 mg/kg, po), 75%.
With `CCCCCC(C)(O)CS[C@H]1CCC(O)[C@@H]1SCCCCCC(=O)OC` (some centres unmarked) [No. 182, methyl 7,13-dithia-9,15-dihydroxy-15-methylprostanoate], the “Inhibiting rate (ulcer formation)” value in data set [1] (dose 0.4 mg/kg, po) is given as 25%; in data set [1] (dose 2.0 mg/kg, po) it was 80%.
In the case of `COC(=O)CCCCCSC1CCC(O)C1SCCCc1ccccc1` (centres unmarked) [No. 190, methyl 7,13-dithia-11-hydroxy-16-phenyl-17,18,19,20-tetranor-prostanoate], the “Inhibiting rate (ulcer formation)” value in data set [1] (dose 0.4 mg/kg, po) worked out at 46%; in data set [1] (dose 1.0 mg/kg, po), 57%.
As to `CCCCC[C@H](O)/C=C/[C@@H]1[C@@H](C/C=C\CCCC(=O)O)[C@@H](O)C[C@H]1O` [PGF2α, reference compound], the LD50 in data set [2] (iv, female, iv, mice, read-out: acute toxicity LD50) is 56 mg/kg; in data set [2] (male, iv, mice, read-out: acute toxicity LD50), 60 mg/kg.
